Numbering of substitutions follows the chain as printed. “And” between values parts separate entries of the source, which are not always exact repeats. Equal entries are not always repeated. Where two headings read alike, the source gives them in different places.
How the values were obtained:
[1] = molecular target: T1, hTA1 C13S (Homo sapiens, UniProt Q96RJ0, C13S); test: GloSensor cAMP accumulation assay, C13S mutant; assay type: cell-based; settings: C13S, n=2
T1 construct: expressed in transfected cells; host or cells: HEK293T
T1 sequence (Q96RJ0 1-339 C13S): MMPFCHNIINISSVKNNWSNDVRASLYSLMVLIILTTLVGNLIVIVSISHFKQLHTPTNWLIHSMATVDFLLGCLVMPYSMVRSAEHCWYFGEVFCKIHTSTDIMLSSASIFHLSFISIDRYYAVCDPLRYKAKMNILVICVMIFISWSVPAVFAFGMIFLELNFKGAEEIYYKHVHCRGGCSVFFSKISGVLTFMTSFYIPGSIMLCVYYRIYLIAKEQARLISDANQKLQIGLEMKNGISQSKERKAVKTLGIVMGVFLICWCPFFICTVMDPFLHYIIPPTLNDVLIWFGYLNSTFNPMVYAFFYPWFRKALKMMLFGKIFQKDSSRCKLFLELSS

[2] = molecular target: T2, β2AR-Nterm-hTA1-F112^3.41W (CryoEM Construct) (Homo sapiens, UniProt Q96RJ0, F112W); test: GloSensor cAMP accumulation assay, cryoEM construct; assay type: cell-based; settings: CryoEM Construct, n=2;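 note: cells transiently co-transfected with the receptor construct and GloSensor cAMP biosensor, luminescence read after 30 min compound exposure at room temperature in the dark as cAMP accumulation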
T2 construct: FLAG (N); 10xHis (N); TEV protease site (N); expressed in transfected cells; host or cells: HEK293T

[3] = molecular target: T3, hTA1 T194A (Homo sapiens, UniProt Q96RJ0, T194A); test: GloSensor cAMP accumulation assay, T194A mutant
T3 sequence (Q96RJ0 1-339 T194A): T1 sequence (Q96RJ0 1-339 C13S) with S13C, T194A

[4] = molecular target: T4, hTA1 C5S (Homo sapiens, UniProt Q96RJ0, C5S); test: GloSensor cAMP accumulation assay, C5S mutant; assay type: cell-based; settings: C5S, n=2
T4 construct: expressed in transfected cells; host or cells: HEK293T
T4 sequence (Q96RJ0 1-339 C5S): T1 sequence (Q96RJ0 1-339 C13S) with C5S, S13C

[5] = molecular target: T5, hTA1 I290Y (Homo sapiens, UniProt Q96RJ0, I290Y); test: GloSensor cAMP accumulation assay, I290Y mutant; assay type: cell-based; settings: for Normalized Luminescence Counts for Concentration Response Curves: I120Y, log[Agonist], single replicates
T5 construct: expressed in transfected cells; host or cells: HEK293T
T5 sequence (Q96RJ0 1-339 I290Y): T1 sequence (Q96RJ0 1-339 C13S) with S13C, I290Y

[6] = read-out: Span ± SEM (Emax normalized to β-PEA)

T2 sequence (Q96RJ0 with tags, fused parts or gaps F112W): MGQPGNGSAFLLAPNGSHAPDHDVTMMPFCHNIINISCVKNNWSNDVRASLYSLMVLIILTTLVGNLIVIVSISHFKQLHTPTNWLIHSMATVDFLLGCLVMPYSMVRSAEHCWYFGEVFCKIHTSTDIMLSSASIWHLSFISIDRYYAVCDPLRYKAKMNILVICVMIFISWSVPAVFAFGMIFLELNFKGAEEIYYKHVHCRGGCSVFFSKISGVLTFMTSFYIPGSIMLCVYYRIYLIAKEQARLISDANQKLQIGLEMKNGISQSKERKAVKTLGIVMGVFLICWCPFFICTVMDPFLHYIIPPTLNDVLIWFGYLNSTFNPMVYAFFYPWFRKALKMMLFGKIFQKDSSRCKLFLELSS

EC50 ([1]; read-out: EC50): 321 nM | Emax [1, 6]: 77.1 ± 4.84% | EC50 ([2]; read-out: EC50): 51.8 nM | Emax [2, 6]: 95.2 ± 1.98% | EC50 ([2]; read-out: pEC50 ± SEM (converted)): 52.5 nM | EC50 ([3]; EC50, T194A): 540 nM | Emax values of Asenapine ([3]; T194A, Mean of one experiment): 80.8072 | ΔEmax values (each mutant value - WT average), T194A, Mean ([3]; hTA1 T194A mutant vs WT average, Figure 6B, each line is one experiment (3 replicates)): 2.977 and -7.9001 | EC50 ([3]; pEC50 values of Asenapine, T194A, Mean of one experiment): 383 nM and 477 nM | EC50 ([3]; pEC50 ± SEM, T194A): 457 nM | Emax ([3]; read-out: Emax values of Asenapine, T194A, Mean of one experiment): 91.7% | Emax ([3]; read-out: Span ± SEM (Emax normalized to β-PEA), T194A): 120% | EC50 ([4]; read-out: EC50): 261 nM | Emax [4, 6]: 83.2 ± 1.59% | Normalized Luminescence Counts for Concentration Response Curves ([5]; M -12.522): -3.7267 | Emax values of Asenapine ([5]; I290Y, Mean of one experiment): 56.131 and 42.2396 | Emax ([5]; I290Y, Mean of one experiment, read-out: Emax values of Asenapine): 54.9% | EC50 ([5]; I290Y, Mean of one experiment, read-out: pEC50 values of Asenapine (converted)): 252 nM and 215 nM and 383 nM | EC50 ([5]; I290Y, read-out: EC50): 275 nM | Emax ([5]; I290Y, read-out: Span ± SEM (Emax normalized to β-PEA)): 51.1 ± 4.43% | Emax ([5]; I290Y, relative to β-PEA, read-out: Emax): 51.1% | ΔEmax values (each mutant value - WT average), I290Y, Mean ([5]; hTA1 I290Y mutant vs WT average, Figure 6B, each line is one experiment (3 replicates)): -33.855 and -32.5762 and -46.4677
SMILES: CN1CC2c3ccccc3Oc3ccc(Cl)cc3C2C1 (stereo not drawn) [asenapine]
Normalized Luminescence Counts for Concentration Response Curves ([5]; M -7): 15.0486 and 28.2836 and 14.433 and 14.2815 and 11.35 and 10.6171 and 4.9397 and 9.4516 and 7.196 | Normalized Luminescence Counts for Concentration Response Curves ([5]; M -7.522): 3.6603 and 8.277 and 2.121 and 8.052 and 3.288 and 0.7233 and -1.828 and 2.684 and 1.556 | Normalized Luminescence Counts for Concentration Response Curves ([5]; M -8): 2.121 and 5.507 and 1.506 and 4.021 and -2.208 and 3.288 and -1.828 and -2.956 and -5.212 | Normalized Luminescence Counts for Concentration Response Curves ([5]; M -8.522): -2.188 and 0.2746 and -1.264 and -1.842 (2×) and -4.04 and -6.34 and -5.212 (2×) | Normalized Luminescence Counts for Concentration Response Curves ([5]; M -9): -1.572 and -0.6488 and -1.264 and -5.506 and -1.109 and -5.873 and -4.0841 and -5.212 (2×) | Normalized Luminescence Counts for Concentration Response Curves ([5]; M -9.522): -3.419 and -1.264 and -3.7267 and -3.674 and -1.109 and -6.239 and -5.212 (2×) and -4.0841 | Normalized Luminescence Counts for Concentration Response Curves ([5]; M -10): -2.496 and -2.188 and -2.803 and -2.575 and 2.189 and 2.922 and -4.0841 and -1.828 and -2.956 | Normalized Luminescence Counts for Concentration Response Curves ([5]; M -10.522): -1.88 (2×) and -1.264 and -6.605 (2×) and -3.307 and -1.828 (2×) and -0.7002 | Normalized Luminescence Counts for Concentration Response Curves ([5]; M -11): -2.188 and -1.88 and -2.496 and -2.575 and -5.506 and -7.705 and -6.34 and -4.0841 and -5.212 | Normalized Luminescence Counts for Concentration Response Curves ([5]; M -11.522): -2.188 and -1.264 (2×) and -1.475 and -4.773 and -4.407 and -4.0841 (2×) and -2.956 | Normalized Luminescence Counts for Concentration Response Curves ([5]; M -12): -3.111 and -2.496 and -2.188 and -5.873 and -5.14 and -2.941 and -1.828 and -2.956 and -4.0841
